Target: T1, SHP2 (Homo sapiens, UniProt Q06124)
T1 sequence (Q06124 1-593): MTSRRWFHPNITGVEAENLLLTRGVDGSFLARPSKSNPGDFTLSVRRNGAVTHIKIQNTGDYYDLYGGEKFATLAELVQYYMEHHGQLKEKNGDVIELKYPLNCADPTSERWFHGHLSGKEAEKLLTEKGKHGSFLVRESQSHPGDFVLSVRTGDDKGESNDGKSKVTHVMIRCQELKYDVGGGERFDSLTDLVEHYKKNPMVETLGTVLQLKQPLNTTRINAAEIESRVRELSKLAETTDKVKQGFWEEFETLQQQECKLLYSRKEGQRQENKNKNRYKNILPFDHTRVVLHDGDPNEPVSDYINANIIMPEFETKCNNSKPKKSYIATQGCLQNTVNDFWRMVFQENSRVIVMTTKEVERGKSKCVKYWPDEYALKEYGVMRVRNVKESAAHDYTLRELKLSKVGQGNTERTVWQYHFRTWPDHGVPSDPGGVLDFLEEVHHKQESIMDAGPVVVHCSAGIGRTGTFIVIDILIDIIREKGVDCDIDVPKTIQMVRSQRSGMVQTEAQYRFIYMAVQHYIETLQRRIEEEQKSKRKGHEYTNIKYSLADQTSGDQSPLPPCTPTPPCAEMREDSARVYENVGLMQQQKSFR
Test: SHP2 allosteric inhibitor enzyme activity assay (DiFMUP fluorescence)
Format: biochemical
Conditions: class symbols
Source text: SHP2 is activated by the binding of a bis-tyrosyl-phosphorylated peptide to its Src homologous 2 (SH2) domain. This subsequent activation step leads to the release of the automatic inhibition interface of SHP2, which in turn activates the SHP2 protein tyrosine phosphatase (PTP) and can be used for substrate recognition and reaction catalysis. The catalytic activity of SHP2 was monitored using the alternative DiFMUP in a rapid fluorescence assay format.
Assay procedures are as follows:
(1) Compound Formulation:
The compound of the present invention (10 mM stock solution) was diluted to a suitable multiple with 100% DMSO and assay buffer, and the final test concentration of the compound of the present invention was 1 μM, 0.333 μM, 0.111 μM, 0.0370 μM, 0.0124 μM, 0.00412 μM, 0.00137 μM, 0.00046 μM, 0.00015 μM, 0.00 μM;
(2) Preparation of Enzyme Reaction Working Fluid:
SHP2 enzyme activity was performed using a final reaction volume of 50 μL and the following assay buffer conditions in 96-well black polystyrene plates (flat bottom, low flange, non-bonding surface) (Perki Elmer, Cat #6005270) at room temperature: 60 mM HEPES, 75 mM NaCl, 75 mM KCl, 0.05% BRIJ-35, 1 mM EDTA, 5 mM DTT.
(3) Enzyme Catalytic Reaction and Data Monitoring:
Compounds of the present invention were added to the corresponding 96-well plates, and no compound and enzyme were provided as blank test wells. SHP2 Activating Peptide (IRS1_pY1172 (dPEG8)pY1222) was placed on ice for melting, and 0.5 μM was added per well, then 0.2 ng SHP2 protein samples were added to corresponding well plates, and incubated at room temperature for 1 hour. Substrate DiFMUP (Invitrogen, Cat #D6567) was added to the reaction at room temperature for 1 hour. Fluorescence signals were monitored using an enzyme reader (Envision, Perki Elmer) using excitation wavelengths and emission wavelengths of 340 nm and 450 nm, respectively.
Inhibition %=[1−(Conversion_sample−Conversion_min)/(Conversion_max−Conversion_min)]*100% Calculation formula: […]
where: Conversion_sample is the mean reading of the sample wells; Conversion_min is the mean reading of blank control wells, representing the reading of the wells without enzyme; Conversion_max is the mean of positive control wells, representing the reading of the wells without inhibitor.
The dose-response curve is fitted with GraphPad Prism software and IC50 was calculated by the “log[inhibitor] vs. response-variable slope” program.

IC50 | SMILES
≤ 20 nM | CC1(C)C=C(c2n[nH]c3nc(N4CCC5(CC4)Cc4ccccc4[C@H]5N)[nH]c(=O)c23)c2cnc(C(F)(F)F)nc2C1 [Example 146, (S)-6-(l-amino-1,3-dihydrospiro[indene-2,4'-piperidin]-1′-yl)-3-(7,7-dimethyl-2-(trifluoromethyl)-7,8-dihydroquinazolin-5-yl)-1,5-dihydro-4H-pyrazolo[3,4-d]pyrimidin-4-one]
> 60 nM | N[C@@H]1c2ccccc2CC12CCN(c1nc3[nH]nc(C4(c5ccccc5)CC4(Cl)Cl)c3c(=O)[nH]1)CC2 (stereo partly drawn) [Example 7, 6-((S)-1-amino-1,3-dihydrospiro[indene-2,4′-piperidin]-1′-yl)-3-(2,2-dichloro-1-phenylcyclopropyl)-1,5-dihydro-4H-pyrazolo[3,4-d]pyrimidin-4-one]
≤ 20 nM | N[C@@H]1c2ccccc2CC12CCN(c1nc3[nH]nc(C4(c5ccccn5)CC4)c3c(=O)[nH]1)CC2 [Example 23, (S)-6-(1-amino-1,3-dihydrospiro[indene-2,4′-piperidin]-1′-yl)-3-(1-(pyridin-2-yl)cyclopropyl)-1,5-dihydro-4H-pyrazolo[3,4-d]pyrimidin-4-one]
20 to 60 nM | C[C@@H]1OCC2(CCN(c3nc4[nH]nc(C5(c6ccc(F)c(F)c6)CC5)c4c(=O)[nH]3)CC2)[C@@H]1N [Example 295, 6-((3S,4S)-4-amino-3-methyl-2-oxa-8-azaspiro[4.5]decan-8-yl)-3-(1-(3,4-difluorophenyl)cyclopropyl)-1,5-dihydro-4H-pyrazolo[3,4-d]pyrimidin-4-one]
≤ 20 nM | N[C@@H]1c2ccccc2CC12CCN(c1nc3[nH]nc(C4(c5ccnc(Cl)c5Cl)CC4)c3c(=O)[nH]1)CC2 [Example 48, (S)-6-(1-amino-1,3-dihydrospiro[indene-2,4′-piperidin]-1′-yl)-3-(1-(2,3-dichloropyridin-4-yl)cyclopropyl)-1,5-dihydro-4H-pyrazolo[3,4-d]pyrimidin-4-one]
≤ 20 nM | N[C@@H]1c2ccccc2CC12CCN(c1nc3[nH]nc(C4=CCCc5sccc54)c3c(=O)[nH]1)CC2 [Example 117, (S)-6-(1-amino-1,3-dihydrospiro[indene-2,4′-piperidin]-1′-yl)-3-(6,7-dihydrobenzo[b]thiophen-4-yl)-1,5-dihydro-4H-pyrazolo[3,4-d]pyrimidin-4-one]
≤ 20 nM | N[C@@H]1c2ccccc2CC12CCN(c1nc3[nH]nc(C4(c5ccco5)CC4)c3c(=O)[nH]1)CC2 [Example 256, (S)-6-(1-amino-1,3-dihydrospiro[indene-2,4′-piperidin]-1′-yl)-3-(1-(furan-2-yl)cyclopropyl)-1,5-dihydro-4H-pyrazolo[3,4-d]pyrimidin-4-one]
≤ 20 nM | N[C@@H]1c2ccccc2CC12CCN(c1nc3[nH]nc(C4(c5ncccn5)CC4)c3c(=O)[nH]1)CC2 [Example 245, (S)-6-(1-amino-1,3-dihydrospiro[indene-2,4′-piperidin]-1′-yl)-3-(1-(pyrimidin-2-yl)cyclopropyl)-1,5-dihydro-4H-pyrazolo[3,4-d]pyrimidin-4-one]
20 to 60 nM | COc1cccc(C2(c3n[nH]c4nc(N5CCC6(CC5)CO[C@@H](C)[C@H]6N)[nH]c(=O)c34)CC2)c1 [Example 305, 6-((3S,4S)-4-amino-3-methyl-2-oxa-8-azaspiro[4.5]decan-8-yl)-3-(1-(3-methoxyphenyl)cyclopropyl)-1,5-dihydro-4H-pyrazolo[3,4-d]pyrimidin-4-one]
20 to 60 nM | N[C@@H]1c2ccccc2CC12CCN(c1nc3[nH]nc(C4(c5ccc(Cl)nn5)CC4)c3c(=O)[nH]1)CC2 [Example 69, (S)-6-(1-amino-1,3-dihydrospiro[indene-2,4′-piperidin]-1′-yl)-3-(1-(6-chloropyridazin-3-yl)cyclopropyl)-1,5-dihydro-4H-pyrazolo[3,4-d]pyrimidin-4-one]
20 to 60 nM | CC(=O)c1cccc(C2(c3n[nH]c4nc(N5CCC6(CC5)CO[C@H](C)[C@@H]6N)[nH]c(=O)c34)CC2)c1 [Example 316, 3-(1-(3-acetylphenyl)cyclopropyl)-6-((3R,4R)-4-amino-3-methyl-2-oxa-8-azaspiro[4.5]decan-8-yl)-1,5-dihydro-4H-pyrazolo[3,4-d]pyrimidin-4-one]
≤ 20 nM | N[C@@H]1c2ccccc2CC12CCN(c1nc3[nH]nc(C4(c5nccs5)CC4)c3c(=O)[nH]1)CC2 [Example 84, (S)-6-(1-amino-1,3-dihydrospiro[indene-2,4′-piperidin]-1′-yl)-3-(1-(thiazol-2-yl)cyclopropyl)-1,5-dihydro-4H-pyrazolo[3,4-d]pyrimidin-4-one]
> 60 nM | C[C@@H]1OCC2(CCN(c3nc4[nH]nc(C5(c6ccccc6C(F)(F)F)CC5)c4c(=O)[nH]3)CC2)[C@@H]1N [Example 298, 6-((3S,4S)-4-amino-3-methyl-2-oxa-8-azaspiro[4.5]decan-8-yl)-3-(1-(2-(trifluoromethyl)phenyl)cyclopropyl)-1,5-dihydro-4H-pyrazolo[3,4-d]pyrimidin-4-one]
≤ 20 nM | CN(C)c1cc(C2(c3n[nH]c4nc(N5CCC6(CC5)Cc5ccccc5[C@H]6N)[nH]c(=O)c34)CC2)ccn1 [Example 54, (S)-6-(1-amino-1,3-dihydrospiro[indene-2,4′-piperidin]-1′-yl)-3-(1-(2-(dimethylamino)pyridin-4-yl)cyclopropyl)-1,5-dihydro-4H-pyrazolo[3,4-d]pyrimidin-4-one]
20 to 60 nM | CC1(C)C=C(c2n[nH]c3nc(N4CCC5(CC4)Cc4ccccc4C5N)[nH]c(=O)c23)c2sc(N)nc2C1 (centres unmarked) [Example 130, 6-(1-amino-1,3-dihydrospiro[indene-2,4′-piperidin]-1′-yl)-3-(2-amino-5,5-dimethyl-4,5-dihydrobenzo[d]thiazol-7-yl)-1,5-dihydro-4H-pyrazolo[3,4-d]pyrimidin-4-one]
≤ 20 nM | N[C@@H]1c2ccccc2CC12CCN(c1nc3[nH]nc(C4=CCOc5cc(C(F)(F)F)ccc54)c3c(=O)[nH]1)CC2 [Example 168, (S)-6-(1-amino-1,3-dihydrospiro[indene-2,4′-piperidin]-1′-yl)-3-(7-(trifluoromethyl)-2H-chromen-4-yl)-1,5-dihydro-4H-pyrazolo[3,4-d]pyrimidin-4-one]
≤ 20 nM | CC1(C)C=C(c2n[nH]c3nc(N4CCC5(CC4)Cc4ccccc4[C@H]5N)[nH]c(=O)c23)c2cc(C#N)cnc2C1 [Example 163, (S)-5-(6-(1-amino-1,3-dihydrospiro[indene-2,4′-piperidin]-1′-yl)-4-oxo-4,5-dihydro-1H-pyrazolo[3,4-d]pyrimidin-3-yl)-7,7-dimethyl-7,8-dihydroquinoline-3-carbonitrile]
≤ 20 nM | N[C@@H]1c2ccccc2CC12CCN(c1nc3[nH]nc(C4(c5ccnc(NC6CC6)c5)CC4)c3c(=O)[nH]1)CC2 [Example 29, (S)-6-(1-amino-1,3-dihydrospiro[indene-2,4′-piperidin]-1′-yl)-3-(1-(2-(cyclopropylamino)pyridin-4-yl)cyclopropyl)-1,5-dihydro-4H-pyrazolo[3,4-d]pyrimidin-4-one]
≤ 20 nM | CCOC(=O)Nc1cccc(C2(c3n[nH]c4nc(N5CCC6(CC5)Cc5ccccc5[C@H]6N)[nH]c(=O)c34)CC2)c1 [Example 41, ethyl (S)-(3-(1-(6-(1-amino-1,3-dihydrospiro[indene-2,4′-piperidin]-1′-yl)-4-oxo-4,5-dihydro-1H-pyrazolo[3,4-d]pyrimidin-3-yl)cyclopropyl)phenyl)carbamate]
≤ 20 nM | N[C@@H]1c2ccccc2CC12CCN(c1nc3[nH]nc(C4(c5cccc6c5COC6)CC4)c3c(=O)[nH]1)CC2 [Example 83, (S)-6-(1-amino-1,3-dihydrospiro[indene-2,4′-piperidin]-1′-yl)-3-(1-(1,3-dihydroisobenzofuran-4-yl)cyclopropyl)-1,5-dihydro-4H-pyrazolo[3,4-d]pyrimidin-4-one]

Reference: US20230192705A1, “SHP2 INHIBITORS, COMPOSITIONS AND USES THEREOF” (Betta Pharmaceuticals Co., Ltd, priority 2020, published 2023)
